Experimental data published in patent publication US5849753A, “Pyridyl imidazole derivatives and processes for the preparation thereof” (Korea Research Institute of Chemical Technology, priority 1994, dated 1998).

Key:
[1] = test system: angiotensin II receptor; assay: Angiotensin II Receptor Binding Assay ([3H] angiotensin II binding inhibition); conditions: [3H] angiotensin II ligand; 60 minutes, 25° C.; test concentration not given
Procedure, shortened: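 Rat membranes (SD adrenal cortex or medulla, Wistar liver) in 50 mM Tris pH 7.2, 5 mM MgCl2, 0.25% BSA were incubated with [3H]angiotensin II and test compound at graded concentrations for 60 min at 25 °C. Bound radioactivity was collected by GF/C filtration and scintillation counting, and percent binding inhibition was calculated versus untreated and blank.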

[2] = test system: furosemide-administered dogs; assay: Duration of action in furosemide-administered dogs; assay type: in vivo, dog; conditions: for blood pressure lowering effect with time: 1 mg, per os
Method: The test dogs were anesthetized with 30 mg/kg of pentobarbital sodium by intravenous injection and the left femoral artery and femoral vein were separated carefully. Silicone catheter, specially prepared and filled with saline treated with heparin(1,000 IU/ml), was cannulated into the blood vessels. After the surgery, the dogs were constrained to measure their blood pressure continuously with Gould 2000 physiograph adapted to a Grass P23 XL pressure transducer; and their heart rates were monitored with ECG/Biotacho amplifier. The dogs were tested at least 2 days after the surgery.
10 mg/kg of furosemide was injected intramuscularly 18 hours(in case of intravenous injection, 2 hours) before the beginning of the test (administration of the test compound) to improve the activity of renin in blood plasma. After the injection of furosemide, neither food nor water was provided. […] The blood pressure and heart rate were measured up to 8 hours after the administration of each test compound.
The compound of Example 8 and the Merck compound were administered orally to the furosemide-administrated dogs as in test 3(i), and blood pressure lowering effect was measured with time.

Structure (SMILES): CCCCc1nc2cc(-c3ccccn3)c(C(OC)OC)nc2n1Cc1ccc(-c2ccccc2-c2nnn[nH]2)cc1 [Example 8, 2-butyl-5-dimethoxymethyl-6-(pyridin-2-yl)-3-[2'-(1H-tetrazol-5-yl)-biphenyl-4-ylmethyl]-3H-imidazo[4,5-b]pyridine]
- Binding Inhibition(%) [1]: 93.4%
- blood pressure lowering effect with time ([2]; 0 min): 0%
- blood pressure lowering effect with time ([2]; 10 min): 0%
- blood pressure lowering effect with time ([2]; 20 min): -8%
- blood pressure lowering effect with time ([2]; 30 min): -16.2%
- blood pressure lowering effect with time ([2]; 60 min): -23.8%
- blood pressure lowering effect with time ([2]; 90 min): -26.0%
- blood pressure lowering effect with time ([2]; 120 min): -30.0%
- blood pressure lowering effect with time ([2]; 150 min): -31.7%
- blood pressure lowering effect with time ([2]; 180 min): -31.7%
- blood pressure lowering effect with time ([2]; 210 min): -31.2%
- blood pressure lowering effect with time ([2]; 240 min): -32.7%
- blood pressure lowering effect with time ([2]; 270 min): -33.9%
- blood pressure lowering effect with time ([2]; 300 min): -34.9%
- blood pressure lowering effect with time ([2]; 330 min): -37.0%
- blood pressure lowering effect with time ([2]; 360 min): -35.5%
- blood pressure lowering effect with time ([2]; 390 min): -36.4%
- blood pressure lowering effect with time ([2]; 420 min): -34.9%
- blood pressure lowering effect with time ([2]; 450 min): -33.0%
- blood pressure lowering effect with time ([2]; 480 min): -33.0%
- maximum blood pressure lowering effect lasted up to (after the administration) ([2]; furosemide-administered dogs, oral, as shown in Table 6): up to 8 hours
